According to PMC6407576, “Synthesis and evaluation of anticancer, antiphospholipases, antiproteases, and antimetabolic syndrome activities of some 3H-quinazolin-4-one derivatives” (Journal of Enzyme Inhibition and Medicinal Chemistry, 2019):

What was measured:
[1] = molecular target: xanthine oxidase (Homo sapiens, UniProt P47989); test: In vitro inhibition of xanthine oxidase; type: biochemical
Description: The xanthine oxidase inhibitory activities of the examined chemical compounds were determined by following the formation of uric acid from xanthine according to the reported method by Bondet and co-workers[46]. […] The results were expressed as IC50 determined from the curve.

[2] = molecular target: T1, human group X (hG-X) sPLA2 (Homo sapiens, UniProt O15496); test: In vitro antiphospholipase activity; type: biochemical; conditions: 20 min preincubation, lecithin substrate, pH 7.6; for IC50: read-out: mean IC50 against hG-X (converted)
T1 sequence (O15496 43-165): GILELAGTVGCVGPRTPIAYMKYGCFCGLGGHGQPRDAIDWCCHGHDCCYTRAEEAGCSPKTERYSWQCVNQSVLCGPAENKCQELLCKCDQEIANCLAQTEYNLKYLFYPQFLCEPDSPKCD

[3] = molecular target: Apis mellifera bee venom (AmPLA2) (Apis mellifera, UniProt P00630); test: biochemical
Apis mellifera bee venom (AmPLA2), sequence (P00630 34-167 limits assumed): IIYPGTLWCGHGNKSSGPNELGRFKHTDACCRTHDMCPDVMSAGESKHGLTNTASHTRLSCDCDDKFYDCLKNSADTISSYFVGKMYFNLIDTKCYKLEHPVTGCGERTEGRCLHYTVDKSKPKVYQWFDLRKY

[4] = molecular target: T2, human group IIA (hG-IIA) sPLA2 (Homo sapiens, UniProt P14555); test: In vitro antiphospholipase activity; type: biochemical
T2 sequence (P14555 21-144): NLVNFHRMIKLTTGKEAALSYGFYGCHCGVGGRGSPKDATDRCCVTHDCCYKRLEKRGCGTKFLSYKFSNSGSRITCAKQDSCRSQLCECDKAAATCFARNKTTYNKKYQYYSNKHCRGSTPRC

[5] = molecular target: T3, human group V (hG-V) sPLA2 (Homo sapiens, UniProt P39877); test: In vitro antiphospholipase activity; type: biochemical; conditions: 20 min preincubation, lecithin substrate, pH 7.6; for IC50: read-out: mean IC50 against hG-V (converted)
T3 sequence (P39877 21-138): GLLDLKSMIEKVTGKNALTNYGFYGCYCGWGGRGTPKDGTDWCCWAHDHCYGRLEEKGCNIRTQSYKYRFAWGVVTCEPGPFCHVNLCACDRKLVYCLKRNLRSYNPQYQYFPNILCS

[6] = molecular target: Naja mossambica mossambica sPLA2 (NmPLA2); test: In vitro antiphospholipase activity; type: biochemical; conditions: 20 min preincubation, lecithin substrate, pH 7.6
[7] = molecular target: elastase; test: In vitro antiprotease activity; type: biochemical; conditions: 15 min preincubation
Description: (§1) The inhibitory effects of 21 3H-quinazolin-4-one derivatives on several available therapeutically important proteases such as cathepsin-B, collagenase, elastase, thrombin, and trypsin were investigated. […] The protease inhibitory activity was expressed as inhibition percentage, which was determined by comparison with a control experiment. The results were expressed as IC50 values that were determined from the standard curve. A protease inhibitor cocktail (Sigma) was used as the positive control.

[8] = molecular target: T4, trypsin (Bos taurus, UniProt P00760); test: In vitro antiprotease activity; type: biochemical; conditions: 15 min preincubation; read-out: mean IC50 against Trypsin (converted)
T4 construct: gene PRSS1
T4 sequence (P00760 24-246): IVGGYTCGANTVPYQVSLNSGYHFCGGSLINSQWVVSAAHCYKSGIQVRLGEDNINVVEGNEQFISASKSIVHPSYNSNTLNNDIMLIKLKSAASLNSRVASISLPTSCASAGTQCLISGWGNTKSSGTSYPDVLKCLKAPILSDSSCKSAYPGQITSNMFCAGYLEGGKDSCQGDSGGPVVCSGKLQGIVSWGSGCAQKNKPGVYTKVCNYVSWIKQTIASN
Description: as §1

[9] = molecular target: collagenase; test: In vitro antiprotease activity; type: biochemical; conditions: 15 min preincubation
Description: as §1

[10] = molecular target: cathepsin-B (Homo sapiens, UniProt P07858); test: In vitro antiprotease activity; type: biochemical; conditions: 15 min preincubation; read-out: mean IC50 against Cathepsin-B (converted)
Description: as §1

[11] = molecular target: thrombin (Homo sapiens, UniProt P00734); test: In vitro antiprotease activity; type: biochemical; conditions: 15 min preincubation; read-out: mean IC50 against Thrombin (converted)
Description: as §1

xanthine oxidase, sequence (P47989 whole entry, species assumed): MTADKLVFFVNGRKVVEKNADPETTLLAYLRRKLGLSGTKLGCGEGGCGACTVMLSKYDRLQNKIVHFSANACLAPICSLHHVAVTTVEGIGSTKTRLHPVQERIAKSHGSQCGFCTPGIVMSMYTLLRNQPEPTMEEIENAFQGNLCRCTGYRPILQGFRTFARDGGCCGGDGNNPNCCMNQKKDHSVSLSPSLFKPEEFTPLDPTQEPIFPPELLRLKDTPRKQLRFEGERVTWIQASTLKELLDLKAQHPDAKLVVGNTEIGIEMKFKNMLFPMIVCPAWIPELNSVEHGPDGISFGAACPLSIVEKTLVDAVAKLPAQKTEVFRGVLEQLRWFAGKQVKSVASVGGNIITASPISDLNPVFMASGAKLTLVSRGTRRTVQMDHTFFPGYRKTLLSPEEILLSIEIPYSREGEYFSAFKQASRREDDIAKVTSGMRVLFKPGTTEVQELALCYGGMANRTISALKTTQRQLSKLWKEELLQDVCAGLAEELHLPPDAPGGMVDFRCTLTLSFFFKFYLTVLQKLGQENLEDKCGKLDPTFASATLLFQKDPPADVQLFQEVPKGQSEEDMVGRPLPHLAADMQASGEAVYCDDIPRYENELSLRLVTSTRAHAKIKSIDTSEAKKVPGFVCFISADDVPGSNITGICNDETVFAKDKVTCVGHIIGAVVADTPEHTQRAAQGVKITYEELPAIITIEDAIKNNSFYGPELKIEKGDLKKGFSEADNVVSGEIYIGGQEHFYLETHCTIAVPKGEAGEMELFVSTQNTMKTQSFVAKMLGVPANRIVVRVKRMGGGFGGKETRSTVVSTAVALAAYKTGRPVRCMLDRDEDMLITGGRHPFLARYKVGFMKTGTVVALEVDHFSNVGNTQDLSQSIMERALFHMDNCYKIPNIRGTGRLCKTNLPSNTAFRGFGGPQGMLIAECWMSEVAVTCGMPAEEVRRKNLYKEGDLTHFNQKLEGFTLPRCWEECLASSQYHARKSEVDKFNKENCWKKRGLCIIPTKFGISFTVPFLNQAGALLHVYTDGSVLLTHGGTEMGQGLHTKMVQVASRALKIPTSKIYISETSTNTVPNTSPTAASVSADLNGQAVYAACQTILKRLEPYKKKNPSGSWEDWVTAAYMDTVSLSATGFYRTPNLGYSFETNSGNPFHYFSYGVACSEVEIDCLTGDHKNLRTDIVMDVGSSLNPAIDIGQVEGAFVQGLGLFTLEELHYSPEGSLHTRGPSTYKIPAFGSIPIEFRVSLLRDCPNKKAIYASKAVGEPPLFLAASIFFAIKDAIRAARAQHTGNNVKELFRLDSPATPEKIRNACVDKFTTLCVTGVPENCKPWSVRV

SMILES	IC50 [1]	IC50 [2]	IC50 [3]	IC50 [4]	IC50 [5]	melting point	mean IC50 against NmPLA2 [6]	mean IC50 against Elastase [7]	IC50 [8]	mean IC50 against Collagenase [9]	IC50 [10]	IC50 [11]	mean IC50 against hG-X [2]	mean IC50 against hG-V [5]
COc1cc(-n2c(C)nc3ccc(Cl)cc3c2=O)cc(OC)c1OC [Compound 5c, 6 -Chloro-2-methyl-3–(3,4,5-trimethoxy-phenyl)-3H-quinazolin-4-one]	36 µM	26.3 µM	12.6 µM	57.5 µM	38.1 µM	188 to 190 °C	5.15 ± 0.92 µg/mL	1.75 ± 0.05 µg/mL	6.24 µM	21.50 ± 2.12 µg/mL	34.6 µM	6.93 µM	–	–
Cc1nc2ccc(Br)cc2c(=O)n1/N=C/c1ccc2ccccc2c1 [Compound 8b, (E)-6-Bromo-2-methyl-3-[(naphthalen-2-ylmethylene)-amino]-3H-quinazolin-4-one]	25.5 µM	33.1 µM	18.5 µM	42.3 µM	54.8 µM	–	16.25 ± 1.06 µg/mL	21.50 ± 2.12 µg/mL	65 µM	4.25 ± 1.06 µg/mL	54.8 µM	42.1 µM	–	–
Cc1nc2ccccc2c(=O)n1/N=C/c1ccc(-c2ccccn2)cc1 [Compound 8c, (E)-2-Methyl-3-[(4-pyridin-2-yl-benzylidene)-amino]-3H-quinazolin-4-one]	11.8 µM	69.8 µM	16.5 µM	22.2 µM	30.8 µM	188 to 190 °C	7.60 ± 0.85 µg/mL	32.00 ± 2.83 µg/mL	103 µM	23.50 ± 0.71 µg/mL	36.7 µM	69 µM	–	–
Cc1nc2ccc(Br)cc2c(=O)n1/N=C/c1ccc(-c2ccccn2)cc1 [Compound 8d, (E)-6-Bromo-2-methyl-3-[(4-pyridin-2-yl-benzylidene)-amino]-3H-quinazolin-4-one]	23.9 µM	15.7 µM	10.5 µM	13.7 µM	22.3 µM	209 to 210 °C	6.55 ± 0.78 µg/mL	26.00 ± 1.41 µg/mL	54.9 µM	3.00 ± 0.01 µg/mL	82.3 µM	37 µM	–	–
COc1cccc(/C=N/n2c(C)nc3ccccc3c2=O)c1[N+](=O)[O-] [Compound 8e, (E)-3-[(3-Methoxy-2-nitro-benzylidene)-amino]-2-methyl-3H-quinazolin-4-one]	102 µM	34.7 µM	22.5 µM	49.1 µM	70.2 µM	178 to 180 °C	7.75 ± 0.35 µg/mL	1.25 ± 0.05 µg/mL	2.51 µM	15.50 ± 2.12 µg/mL	6.95 µM	4.43 µM	–	–
Cc1nc2ccccc2c(=O)n1/N=C/c1ccc(C#N)cc1 [Compound 8g, (E)-4-[(2-Methyl-4-oxo-4H-quinazolin-3-ylimino)-methyl]-benzonitrile]	257 µM	79.8 µM	46.8 µM	95.4 µM	117 µM	222 to 224 °C	12.75 ± 1.06 µg/mL	11.00 ± 0.41 µg/mL	46.8 µM	17.25 ± 1.77 µg/mL	25.1 µM	48.6 µM	–	–
Cc1nc2ccc(Br)cc2c(=O)n1/N=C/c1ccc(C#N)cc1 [Compound 8h, (E)-4-[(6-Bromo-2-methyl-4-oxo-4H-quinazolin-3-ylimino)-methyl]-benzonitrile]	154 µM	112 µM	79 µM	120 µM	92.6 µM	228 to 230 °C	22.90 ± 1.27 µg/mL	27.50 ± 2.12 µg/mL	91.2 µM	14.50 ± 2.12 µg/mL	10.9 µM	66.7 µM	–	–
Cc1nc2ccccc2c(=O)n1/N=C/c1ccc(-c2ccccc2)cc1 [Compound 8i]	25 µM	50.1 µM	27.7 µM	45.4 µM	67.8 µM	–	11.00 ± 1.41 µg/mL	13.50 ± 2.12 µg/mL	36.8 µM	15.25 ± 1.06 µg/mL	10.3 µM	51.6 µM	–	–
Cc1nc2ccccc2c(=O)n1NC(=O)OCC(C)C [Compound 10, (2-methyl-4-oxo-4H-quinazolin-3-yl)-carbamic acid isobutyl ester]	109 µM	34.5 µM	16.3 µM	56.3 µM	62.7 µM	168 to 170 °C	13.45 ± 0.78 µg/mL	1.45 ± 0.21 µg/mL	4 µM	28.00 ± 1.41 µg/mL	81.7 µM	8.54 µM	–	–
Cc1nc2ccccc2c(=O)n1/N=C/N(C)C [Compound 12, (E)-N,N-dimethyl-N′-(2-methyl-4-oxo-4H-quinazolin-3-yl)-formamidine]	91.2 µM	141 µM	122 µM	200 µM	150 µM	100 to 102 °C	35.00 ± 2.83 µg/mL	8.50 ± 2.12 µg/mL	56.5 µM	35.50 ± 2.12 µg/mL	119 µM	23.9 µM	–	–
Cc1cccc(NC(=O)CSc2nc3ccccc3c(=O)n2-c2ccccc2)c1C [Compound 15e]	98.7 µM	17.4 µM	21.1 µM	34.9 µM	32.2 µM	–	11.00 ± 1.41 µg/mL	31.50 ± 2.12 µg/mL	81.8 µM	4.50 ± 0.71 µg/mL	3.85 µM	57.8 µM	–	–
Cc1ccc2nc(SCC(=O)Nc3cccc(C)c3C)n(-c3ccccc3)c(=O)c2c1 [Compound 15f, N-(2,3-Dimethyl-phenyl)-2-(6-methyl-4-oxo-3-phenyl-3,4-dihydro-quinazolin-2-ylsulfanyl) -acetamide]	136 µM	51.2 µM	86.7 µM	90.8 µM	70.1 µM	218 to 220 °C	33.00 ± 2.83 µg/mL	16.00 ± 1.41 µg/mL	39.6 µM	10.50 ± 2.12 µg/mL	9.31 µM	40.7 µM	–	–
CC1(C)CC[C@]2(C(=O)O)CC[C@]3(C)C(=CC[C@@H]4[C@@]5(C)CC[C@H](O)C(C)(C)[C@@H]5CC[C@]43C)[C@@H]2C1 [Oleanolic acid, reference compound]	–	–	9.2 µM	–	–	–	4.90 ± 0.42 µg/mL	–	–	–	–	–	7.55 ± 0.64 µg/mL	7.50 ± 0.71 µg/mL
